{
  "source": "patent US20150105252A1",
  "about": "“SUBSTITUTED PYRAZOLES AS HERBICIDES” (E I DU PONT DE NEMOURS AND COMPANY, priority 2013, published 2015)",
  "key": {"[1]": {"system": "barnyardgrass", "experiment": "Test A preemergence", "format": "in vivo, Echinochloa crus-galli", "conditions": "0 to 100 scale", "summary_of_the_method": "(§1)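 Seeds were sown in a loam soil–sand blend and given a directed soil spray preemergence; postemergence plants at 2–10 cm, one- to two-leaf stage, were sprayed with compound in non-phytotoxic solvent with surfactant. After about 10 days in a greenhouse, injury was visually rated against untreated controls (0 = no effect, 100 = complete control).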"}, "[2]": {"system": "pigweed", "experiment": "Test A preemergence", "format": "in vivo, Amaranthus retroflexus", "conditions": "0 to 100 scale", "summary_of_the_method": "as §1"}, "[3]": {"system": "velvetleaf", "experiment": "Test A preemergence", "format": "in vivo, Abutilon theophrasti", "conditions": "0 to 100 scale", "summary_of_the_method": "as §1"}, "[4]": {"system": "pigweed", "experiment": "Test A postemergence", "format": "in vivo, Amaranthus retroflexus", "summary_of_the_method": "as §1"}, "[5]": {"system": "velvetleaf", "experiment": "Test A postemergence", "format": "in vivo, Abutilon theophrasti", "summary_of_the_method": "as §1"}, "[6]": {"system": "blackgrass", "experiment": "Test C preemergence", "format": "in vivo, Alopecurus myosuroides", "description": "(§2) Seeds of plant species selected from blackgrass (Alopecurus myosuroides), ryegrass, Italian (Italian ryegrass, Lolium multiflorum), wheat (winter wheat, Triticum aestivum), galium (catchweed bedstraw, Galium aparine), corn (Zea mays), crabgrass, large (large crabgrass, Digitaria sanguinalis), foxtail, giant (giant foxtail, Setaria faberii), johnsongrass (Sorghum halepense), lambsquarters (Chenopodium album), morningglory (Ipomoea coccinea), nutsedge, yellow (yellow nutsedge, Cyperus esculentus), pigweed (redroot pigweed, Amaranthus retroflexus), ragweed (common ragweed, Ambrosia elation), soybean (Glycine max), barnyardgrass (Echinochloa crus-galli), oilseed rape (Brassica napus), waterhemp (common waterhemp, Amaranthus rudis), oat, wild (wild oat, Avena fatua), kochia (Kochia scoparia), Surinam grass (Brachiaria decumbens), foxtail, green (green foxtail, Setaria viridis), goosegrass (Eleusine indica), bromegrass, downy (downy bromegrass, Bromus tectorum), nightshade (eastern black nightshade, Solanum ptycanthum), cocklebur (common cocklebur, Xanthium strumarium), cupgrass, woolly (woolly cupgrass, Eriochloa villosa), bermudagrass (Cynodon dactylon), sunflower, (common oilseed sunflower, Helianthus annuus), Russian thistle (Salsola kali), and velvetleaf (Abutilon theophrasti) were planted into a blend of loam soil and sand and treated preemergence with test chemicals formulated in a non-phytotoxic solvent mixture which included a surfactant.\n(§3) At the same time, plants selected from these crop and weed species and also chickweed (common chickweed, Stellaria media), canarygrass (littleseed canarygrass, Phalaris minor), and deadnettle (henbit deadnettle, Lamium amplexicaule), were planted in pots containing Redi-Earth® planting medium (Scotts Company, 14111 Scottslawn Road, Marysville, Ohio 43041) comprising spaghnum peat moss, vermiculite, wetting agent and starter nutrients and treated with postemergence applications of test chemicals formulated in the same manner. Plants ranged in height from 2 to 18 cm (1- to 4-leaf stage) for postemergence treatments. Treated plants and controls were maintained in a greenhouse for 13 to 15 days, after which time all species were compared to controls and visually evaluated. Plant response ratings, summarized in Table C, are based on a scale of 0 to 100 where 0 is no effect and 100 is complete control. A dash (-) response means no test result."}, "[7]": {"system": "wheat", "experiment": "Test C preemergence", "format": "in vivo, Triticum aestivum", "description": "as §2, §3"}, "[8]": {"system": "foxtail, giant", "experiment": "Test C preemergence", "format": "in vivo, Setaria faberii", "description": "as §2, §3"}, "[9]": {"system": "johnsongrass", "experiment": "Test C preemergence", "format": "in vivo, Sorghum halepense", "description": "as §2, §3"}, "[10]": {"system": "ragweed", "experiment": "Test C preemergence", "format": "in vivo, Ambrosia elation", "description": "as §2, §3"}, "[11]": {"system": "soybean", "experiment": "Test C preemergence", "format": "in vivo, Glycine max", "description": "as §2, §3"}, "[12]": {"system": "corn", "experiment": "Test C postemergence", "format": "in vivo, Zea mays", "conditions": "for Corn plant response rating: scale 0 to 100", "description": "as §2, §3"}, "[13]": {"system": "johnsongrass", "experiment": "Test C postemergence", "format": "in vivo, Sorghum halepense", "conditions": "for Johnsongrass plant response rating: scale 0 to 100", "description": "as §2, §3"}, "[14]": {"system": "lambsquarters", "experiment": "Test C postemergence", "format": "in vivo, Chenopodium album", "conditions": "for Lambsquarters plant response rating: scale 0 to 100", "description": "as §2, §3"}, "[15]": {"conditions": "Preemergence, 500 g ai/ha, 0 no effect, 100 complete control"}, "[16]": {"conditions": "preemergence, 125 g ai/ha, visual injury, approx. 10 days"}, "[17]": {"conditions": "Postemergence, 500 g ai/ha, visual rating after approx. 10 days, 0 to 100 scale (0 no effect, 100 complete control)"}, "[18]": {"conditions": "postemergence, 125 g ai/ha, about 10 days, visual rating on 0 to 100 scale (0 no effect, 100 complete control)"}, "[19]": {"conditions": "preemergence, 31 g ai/ha, scale 0 to 100 (0 no effect, 100 complete control), 13 to 15 days"}, "[20]": {"conditions": "preemergence, 62 g ai/ha, 13 to 15 days, scale 0 to 100, 0 = no effect, 100 = complete control"}, "[21]": {"conditions": "preemergence, 125 g ai/ha, scale 0 to 100, 0 is no effect, 100 is complete control"}, "[22]": {"conditions": "postemergence, 250 g ai/ha, scale 0 to 100 (0 no effect, 100 complete control)"}, "[23]": {"conditions": "postemergence, 125 g ai/ha, scale 0 to 100, 0 no effect, 100 complete control"}, "[24]": {"conditions": "Preemergence, 1000 g ai/ha, 0 no effect, 100 complete control"}, "[25]": {"conditions": "Postemergence, 1000 g ai/ha, visual rating after approx. 10 days, 0 to 100 scale (0 no effect, 100 complete control)"}, "[26]": {"conditions": "postemergence, 62 g ai/ha, scale 0 to 100, 0 no effect, 100 complete control"}},
  "data": [
    {"smiles": "CCONC(=O)c1cc(CC)n(Cc2cccc(OC(F)(F)F)c2)n1", "note": "[Compound 72]", "values": [
      {"measurement": "Barnyardgrass plant response rating", "setting": "[1]; [15]", "result": 100},
      {"measurement": "Barnyardgrass plant response rating", "setting": "[1]; [16]", "result": 90},
      {"measurement": "Pigweed plant response rating", "setting": "[2]; [15]", "result": 100},
      {"measurement": "Pigweed plant response rating", "setting": "[2]; [16]", "result": 100},
      {"measurement": "Velvetleaf plant response rating", "setting": "[3]; [15]", "result": 100},
      {"measurement": "Velvetleaf plant response rating", "setting": "[3]; [16]", "result": 70},
      {"measurement": "Pigweed plant response rating", "setting": "[4]; [17]", "result": 100},
      {"measurement": "Pigweed plant response rating", "setting": "[4]; [18]", "result": 90},
      {"measurement": "Velvetleaf plant response rating", "setting": "[5]; [17]", "result": 90},
      {"measurement": "Velvetleaf plant response rating", "setting": "[5]; [18]", "result": 80},
      {"measurement": "Plant response rating (scale of 0 to 100), Blackgrass", "setting": "[6]; Preemergence, 250 g ai/ha", "result": 85},
      {"measurement": "Blackgrass plant response rating", "setting": "[6]; [19]", "result": 45},
      {"measurement": "Plant response rating, Blackgrass", "setting": "[6]; [20]", "result": 80},
      {"measurement": "Blackgrass plant response rating", "setting": "[6]; [21]", "result": 85},
      {"measurement": "Plant response rating (scale of 0 to 100), Wheat", "setting": "[7]; Preemergence, 250 g ai/ha", "result": 85},
      {"measurement": "Wheat plant response rating", "setting": "[7]; [19]", "result": 5},
      {"measurement": "Plant response rating, Wheat", "setting": "[7]; [20]", "result": 20},
      {"measurement": "Wheat plant response rating", "setting": "[7]; [21]", "result": 50},
      {"measurement": "Plant response rating (scale of 0 to 100), Foxtail, Giant", "setting": "[8]; Preemergence, 250 g ai/ha", "result": 100},
      {"measurement": "Foxtail, Giant plant response rating", "setting": "[8]; [19]", "result": 65},
      {"measurement": "Plant response rating, Foxtail, Giant", "setting": "[8]; [20]", "result": 80},
      {"measurement": "Foxtail, Giant plant response rating", "setting": "[8]; [21]", "result": 85},
      {"measurement": "Plant response rating (scale of 0 to 100), Johnsongrass", "setting": "[9]; Preemergence, 250 g ai/ha", "result": 75},
      {"measurement": "Johnsongrass plant response rating", "setting": "[9]; [19]", "result": 40},
      {"measurement": "Plant response rating, Johnsongrass", "setting": "[9]; [20]", "result": 55},
      {"measurement": "Johnsongrass plant response rating", "setting": "[9]; [21]", "result": 65},
      {"measurement": "Plant response rating (scale of 0 to 100), Ragweed", "setting": "[10]; Preemergence, 250 g ai/ha", "result": 60},
      {"measurement": "Ragweed plant response rating", "setting": "[10]; [19]", "result": 0},
      {"measurement": "Plant response rating, Ragweed", "setting": "[10]; [20]", "result": 50},
      {"measurement": "Ragweed plant response rating", "setting": "[10]; [21]", "result": 55},
      {"measurement": "Plant response rating (scale of 0 to 100), Soybean", "setting": "[11]; Preemergence, 250 g ai/ha", "result": 75},
      {"measurement": "Soybean plant response rating", "setting": "[11]; [19]", "result": 20},
      {"measurement": "Plant response rating, Soybean", "setting": "[11]; [20]", "result": 60},
      {"measurement": "Soybean plant response rating", "setting": "[11]; [21]", "result": 75},
      {"measurement": "Corn plant response rating", "setting": "[12]; Postemergence, 31 g ai/ha", "result": 10},
      {"measurement": "Corn plant response rating", "setting": "[12]; postemergence, 62 g ai/ha", "result": 10},
      {"measurement": "Plant response rating, Corn", "setting": "[12]; [22]", "result": 60},
      {"measurement": "Plant response rating, Corn", "setting": "[12]; [23]", "result": 10},
      {"measurement": "Johnsongrass plant response rating", "setting": "[13]; Postemergence, 31 g ai/ha", "result": 0},
      {"measurement": "Johnsongrass plant response rating", "setting": "[13]; postemergence, 62 g ai/ha", "result": 0},
      {"measurement": "Plant response rating, Johnsongrass", "setting": "[13]; [22]", "result": 0},
      {"measurement": "Plant response rating, Johnsongrass", "setting": "[13]; [23]", "result": 0},
      {"measurement": "Lambsquarters plant response rating", "setting": "[14]; Postemergence, 31 g ai/ha", "result": 60},
      {"measurement": "Lambsquarters plant response rating", "setting": "[14]; postemergence, 62 g ai/ha", "result": 70},
      {"measurement": "Plant response rating, Lambsquarters", "setting": "[14]; [22]", "result": 98},
      {"measurement": "Plant response rating, Lambsquarters", "setting": "[14]; [23]", "result": 90}
    ]},
    {"smiles": "CCc1cc(C(=O)NCC(F)(F)F)nn1Cc1cccc(OC(F)(F)F)c1", "note": "[Compound 20]", "values": [
      {"measurement": "Barnyardgrass plant response rating", "setting": "[1]; [24]", "result": 80},
      {"measurement": "Pigweed plant response rating", "setting": "[2]; [24]", "result": 100},
      {"measurement": "Velvetleaf plant response rating", "setting": "[3]; [24]", "result": 70},
      {"measurement": "Pigweed plant response rating", "setting": "[4]; [25]", "result": 100},
      {"measurement": "Velvetleaf plant response rating", "setting": "[5]; [25]", "result": 90},
      {"measurement": "Corn plant response rating", "setting": "[12]; Postemergence, 31 g ai/ha", "result": 15},
      {"measurement": "Plant response rating, Corn", "setting": "[12]; [22]", "result": 25},
      {"measurement": "Plant response rating, Corn", "setting": "[12]; [26]", "result": 20},
      {"measurement": "Plant response rating, Corn", "setting": "[12]; [23]", "result": 20},
      {"measurement": "Johnsongrass plant response rating", "setting": "[13]; Postemergence, 31 g ai/ha", "result": 0},
      {"measurement": "Plant response rating, Johnsongrass", "setting": "[13]; [22]", "result": 10},
      {"measurement": "Plant response rating, Johnsongrass", "setting": "[13]; [26]", "result": 0},
      {"measurement": "Plant response rating, Johnsongrass", "setting": "[13]; [23]", "result": 5},
      {"measurement": "Lambsquarters plant response rating", "setting": "[14]; Postemergence, 31 g ai/ha", "result": 60},
      {"measurement": "Plant response rating, Lambsquarters", "setting": "[14]; [22]", "result": 75},
      {"measurement": "Plant response rating, Lambsquarters", "setting": "[14]; [26]", "result": 60},
      {"measurement": "Plant response rating, Lambsquarters", "setting": "[14]; [23]", "result": 65}
    ]}
  ]
}
